The compounds below were run on L. crispatus and E. coli (assay: Therapeutic effect protocol: L. crispatus / E. coli co-culture in LAPT-g media supplemented with therapeutic agents). Details: anaerobic, 37° C., measured 36 hours after inoculation, agent w/vol % as given per sample.
Assay type: cell-based
Method: Therapeutic Effect Protocol
Colonies of L. crispatus and E. coli were prepared as follows. A colony of L. crispatus was transferred to 7 ml MRS broth and incubated anaerobically (using BD GasPak EZ anaerobe container system with indicator) at 37° C. without shaking for 18-20 hours. A colony of E. coli was transferred to 5 ml TSB broth and incubated aerobically (shaking at 100 rpm) at 37° C. for 18-20 hours.
Colonies were then inoculated as follows. Bacterial cultures were gently vortexed and 1 mL of each culture was transferred to a corresponding 2.0 mL micro-centrifuge tube and then centrifuged for two minutes at 14,500 rpm. The cultural supernatant was removed and the cell pellet was re-suspended in 1 mL of 0.95% (wt/vol %) saline. The re-suspended colony was then centrifuged for two minutes at 14,500 rpms and the supernatant was removed. For L. crispatus, the pellet was re-suspended in 1 mL of 0.95% saline to achieve ˜10^7-10^8 cfu/mL. For E. coli the pellet was re-suspended in 1 mL of 0.95% saline to achieve ˜10^8-10^9 cfu/mL.
Media were prepared as follows.
All of the ingredients in Table 1 were combined and the pH was adjusted to 6.5. The media were then autoclaved for 20 minutes at 125° C. To evaluate the effect of various therapeutic agents on the growth of bacteria the LAPT-g media, prepared as described above, was supplemented with various therapeutic agents to a final test concentration between 0.1 and 1.0%.
Five milliliters (5 mL) of each medium was transferred to a test tube in duplicates for subsequent inoculation. A master mixture of L. crispatus and E. coli, prepared as described above, was prepared in 1,000:1 ratio. Each (5 ml) test tube was inoculated with the master mixture to give 10^5-10^6 total CFU L. crispatus and 100-1,000 total CFU E. coli per tube.
To establish a negative control, one tube was vortexed and 100 μL was removed to determine the initial cell concentrations by serial dilutions and plating (2 plates per dilution). L. crispatus is selected on MRS agar plates incubated anaerobically at 37° C. for two days. E. coli is selected on TSA plates incubated aerobically at 37° C. for one day. The co-cultures were incubated in an anaerobic container with BD GasPaks at 37° C. for 36 hours.
The effect of the carbon source on the ratio of L. crispatus to E. coli was measured 36 hours after inoculation. The co-culture tube was vortexed and 100 μL was removed to determine the final cell concentrations by serial dilutions and plating (2 plates per dilution). L. crispatus is selected on MRS agar plates incubated anaerobically at 37° C. for two days. E. coli is selected on TSA plates incubated aerobically at 37° C. for one day.
Inventive samples were prepared by supplementing LAPT-g media, prepared as described above, with various therapeutic agents as described in Table 2, below. The therapeutic effect of the formulation was then measured using the assay described above in the Test Methods section above. The therapeutic effect is summarized below as the ratio of L. crispatus to E. coi.

SMILES | L. crispatus/E. coli ratio
O=CC[C@H](O)[C@H](O)CO [Sample 21, 2-Deoxy-D-Ribose] | 1.7
OC[C@H]1O[C@@H](O[C@@H]2[C@@H](CO)OC(O)(CO)[C@H]2O)[C@H](O)[C@@H](O)[C@H]1O (mixture of isomers) [Sample 28, Lactulose] | 3.9
O=C[C@@H](O)[C@H](O)[C@H](O)CO [Sample 24, D-Arabinose] | 2.2
OCc1ccccc1O[C@@H]1O[C@H](CO)[C@@H](O)[C@H](O)[C@H]1O [Sample 32, Salicin] | 1.5
O.O.OC[C@H]1O[C@H](O[C@H]2O[C@H](CO)[C@@H](O)[C@H](O)[C@H]2O)[C@H](O)[C@@H](O)[C@@H]1O [Sample 26, D-Trehalose] | 30.1
OC[C@H]1O[C@@H]2O[C@H]3[C@H](O)[C@@H](O)[C@@H](O[C@H]4[C@H](O)[C@@H](O)[C@@H](O[C@H]5[C@H](O)[C@@H](O)[C@@H](O[C@H]6[C@H](O)[C@@H](O)[C@@H](O[C@H]7[C@H](O)[C@@H](O)[C@@H](O[C@H]1[C@H](O)[C@H]2O)O[C@@H]7CO)O[C@@H]6CO)O[C@@H]5CO)O[C@@H]4CO)O[C@@H]3CO [Sample 23, α-Cyclodextrin] | 6.5
O=C(O)CC(O)C(=O)O (centres unmarked) [Sample 29, Malic acid] | 30.7
CO[C@H]1O[C@H](CO)[C@@H](O)[C@H](O)[C@H]1O [Sample 22, α-Methyl-D-Glucoside] | 3

Reference: patent publication US12419898B2, “Synergistic composition for maintenance of healthy balance of microflora” (Kimberly-Clark Worldwide, Inc., priority 2015, dated 2025)
